Assays:
[1] = system: wild pansy (VIOTR, Viola tricolor); experiment: Postemergence herbicidal activity, greenhouse (Example 3); type: in vivo
Source text: (§1) Compound 1 was formulated as an EC and combined with bentazon, isoproturon, metribuzin and atrazine.

[2] = system: rape (Brassica napus, BRSNN); experiment: as above; type: in vivo
Source text: as §1

[3] = system: barnyardgrass (Echinochloa crus-galli, ECHCG); experiment: as above; type: in vivo
Source text: as §1

[4] = system: common sunflower (Helianthus annuus, HELAN); experiment: as above; type: in vivo
Source text: as §1

[5] = system: thistle (Cirsium arvense, CIRAR); experiment: as above; type: in vivo
Source text: as §1

[6] = system: nutsedge (Cyperus esculentus, CYPES); experiment: as above; type: in vivo
Source text: as §1

[7] = system: pigweed (AMARE, Amaranthus retroflexus); experiment: Postemergence herbicidal activity, greenhouse (Example 1); settings: 20-22 d
[8] = system: thistle (CIRAR, Cirsium arvense); experiment: as above; settings: 20-22 d
[9] = system: ivy-leaved speedwell (VERHE, Veronica hederifolia); experiment: Postemergence herbicidal activity, greenhouse (Example 3); type: in vivo
Source text: as §1

[10] = system: poinsettia (Euphorbia heterophylla, EPHHL); experiment: as above; type: in vivo
Source text: as §1

[11] = system: pigweed (Amaranthus retroflexus, AMARE); experiment: as above; type: in vivo
Source text: as §1

rice (ORYSA) = experiment: Postemergence crop phytotoxicity, greenhouse (Example 3); type: in vivo, Oryza sativa
Source text: as §1

[12] = system: velvetleaf (Abutilon theophrasti, ABUTH); experiment: Postemergence herbicidal activity, greenhouse (Example 3); type: in vivo
Source text: as §1

[13] = system: large crabgrass (Digitaria sanguinalis, DIGSA); experiment: as above; type: in vivo
Source text: as §1

winter wheat (TRZAW) [14] = experiment: Postemergence crop phytotoxicity, greenhouse (Example 3); type: in vivo, Triticum aestivum; settings: 20-22 d
Source text: as §1

corn (ZEAMX) = experiment: as above; type: in vivo, Zea mays; settings: 20-22 d
Source text: as §1

winter wheat (TRZAW) [15] = experiment: Postemergence crop phytotoxicity, greenhouse (Example 1); settings: 20-22 d
[16] = system: pigweed (AMARE, Amaranthus retroflexus); experiment: Postemergence herbicidal activity, greenhouse (Example 2); type: in vivo; settings: 20-22 d
Procedure: (§2) Stocks solutions of the compound mixtures were prepared following the same procedure.

[17] = system: poinsettia (Euphorbia heterophylla, EPHHL); experiment: as above; type: in vivo; settings: 20-22 d
Procedure: as §2

[18] = system: ivyleaf morningglory (Ipomoea hederacea, IPOHE); experiment: as above; type: in vivo; settings: 20-22 d
Procedure: as §2

[19] = system: nutsedge (Cyperus esculentus, CYPES); experiment: as above; type: in vivo; settings: 20-22 d
Procedure: as §2

spring barley (HORVS) = experiment: Postemergence crop phytotoxicity, greenhouse (Example 1); settings: Bromoxynil 70 g ai/ha, 20-22 d
maize (ZEAMX) = experiment: Postemergence crop phytotoxicity, greenhouse (Example 2)
Procedure: as §2

winter wheat (TRZAW) [20] = experiment: as above
Procedure: as §2

[21] = Isoproturon 150 g ai/ha, 20-22 d
[22] = Compound 1 5 g ae/ha, 20-22 d (Table 7)
[23] = Compound 1 5 g ae/ha, 20-22 d (Tables 4-6)

CC(C)c1ccc(NC(=O)N(C)C)cc1 [Isoproturon]
Effect (% visual injury) Obs [1, 21]: 0% | Effect (% visual injury) Obs [2, 21]: 0% | Effect (% visual injury) Obs [3, 21]: 0% | Effect (% visual injury) Obs [4, 21]: 0% | Effect (% visual injury) Obs [5, 21]: 10% | Effect (% visual injury) Obs [6, 21]: 0%

Nc1c(F)c(-c2ccc3cc[nH]c3c2F)nc(C(=O)[O-])c1Cl.[K+] [Compound 7]
Effect (% visual injury) Obs ([7]; Compound 7 8.75 g ae/ha): 70% | Effect (% visual injury) Obs ([8]; Compound 7 5 g ae/ha): 50% | Effect (% visual injury) Obs ([8]; Compound 7 10 g ae/ha): 65%

CCNc1nc(Cl)nc(NC(C)C)n1 [Atrazine]
Effect (% visual injury) Obs ([9]; Atrazine 450 g ai/ha, 20-22 d): 45% | Effect (% visual injury) Obs ([1]; Atrazine 450 g ai/ha, 20-22 d): 5% | Effect (% visual injury) Obs ([10]; Atrazine 450 g ai/ha, 20-22 d): 0% | Effect (% visual injury) Obs ([11]; Atrazine 450 g ai/ha, 20-22 d): 50%

Nc1c(F)c(-c2ccc3cc[nH]c3c2F)nc(C(=O)O)c1Cl [Compound 1]
Effect (% visual injury) Obs (rice (ORYSA); Oryza sativa (rice), in vivo): 0% | Effect (% visual injury) Obs [9, 22]: 40% | Effect (% visual injury) Obs [1, 22]: 5% | Effect (% visual injury) Obs [1, 23]: 10% | Effect (% visual injury) Obs [10, 22]: 97% | Effect (% visual injury) Obs [10, 23]: 97% | Effect (% visual injury) Obs [2, 23]: 50% | Effect (% visual injury) Obs [3, 23]: 60% | Effect (% visual injury) Obs [11, 22]: 65% | Effect (% visual injury) Obs [11, 23]: 93% | Effect (% visual injury) Obs [12, 23]: 10% | Effect (% visual injury) Obs [13, 23]: 0% | Effect (% visual injury) Obs [4, 23]: 97% | Effect (% visual injury) Obs [5, 23]: 20% | Effect (% visual injury) Obs [6, 23]: 10%

CC(C)N1C(=O)c2ccccc2NS1(=O)=O [Bentazon]
Effect (% visual injury) Obs (winter wheat (TRZAW) [14]; Bentazon 60 g ai/ha): 0% | Effect (% visual injury) Obs (corn (ZEAMX); Bentazon 60 g ai/ha): 0% | Effect (% visual injury) Obs ([10]; Bentazon 60 g ai/ha, 20-22 d): 0% | Effect (% visual injury) Obs ([2]; Bentazon 60 g ai/ha, 20-22 d): 20% | Effect (% visual injury) Obs ([3]; Bentazon 60 g ai/ha, 20-22 d): 0% | Effect (% visual injury) Obs ([11]; Bentazon 60 g ai/ha, 20-22 d): 10% | Effect (% visual injury) Obs ([12]; Bentazon 60 g ai/ha, 20-22 d): 0% | Effect (% visual injury) Obs ([13]; Bentazon 60 g ai/ha, 20-22 d): 0% | Effect (% visual injury) Obs ([5]; Bentazon 60 g ai/ha, 20-22 d): 0% | Effect (% visual injury) Obs ([6]; Bentazon 60 g ai/ha, 20-22 d): 0%

N#Cc1cc(Br)c(O)c(Br)c1 [Bromoxynil]
Effect (% visual injury) Obs (winter wheat (TRZAW) [15]; Bromoxynil 70 g ai/ha): 0% | Effect (% visual injury) Obs (winter wheat (TRZAW) [15]; Bromoxynil 140 g ai/ha): 0% | Effect (% visual injury) Obs ([16]; Bromoxynil 70 g ai/ha): 20% | Effect (% visual injury) Obs ([17]; Bromoxynil 70 g ai/ha): 5% | Effect (% visual injury) Obs ([18]; Bromoxynil 70 g ai/ha): 25% | Effect (% visual injury) Obs ([19]; Bromoxynil 70 g ai/ha): 0% | Effect (% visual injury) Obs ([7]; Bromoxynil 140 g ai/ha): 0% | Effect (% visual injury) Obs (spring barley (HORVS)): 0% | Effect (% visual injury) Obs ([8]; Bromoxynil 70 g ai/ha): 40% | Effect (% visual injury) Obs (maize (ZEAMX); ZEAMX, Bromoxynil 70 g ai/ha, postemergence, 20-22 d): 0% | Effect (% visual injury) Obs (winter wheat (TRZAW) [20]; TRZAW, Bromoxynil 70 g ai/ha, postemergence, 20-22 d): 0%

Nc1c(F)c(-c2ccc3cc[nH]c3c2F)nc(C(=O)OCc2ccccc2)c1Cl [Compound 2]
Effect (% visual injury) Obs ([16]; Compound 2 5 g ae/ha): 88% | Effect (% visual injury) Obs ([16]; Compound 2 10 g ae/ha): 100% | Effect (% visual injury) Obs ([17]; Compound 2 5 g ae/ha): 35% | Effect (% visual injury) Obs ([17]; Compound 2 10 g ae/ha): 75% | Effect (% visual injury) Obs ([18]; Compound 2 5 g ae/ha): 10% | Effect (% visual injury) Obs ([18]; Compound 2 10 g ae/ha): 20% | Effect (% visual injury) Obs ([19]; Compound 2 5 g ae/ha): 5% | Effect (% visual injury) Obs ([19]; Compound 2 10 g ae/ha): 10% | Effect (% visual injury) Obs (maize (ZEAMX); Zea mays (maize), in vivo): 3% | Effect (% visual injury) Obs (winter wheat (TRZAW) [20]; Triticum aestivum (winter wheat), in vivo): 3%

CSc1nnc(C(C)(C)C)c(=O)n1N [Metribuzin]
Effect (% visual injury) Obs (winter wheat (TRZAW) [14]; Metribuzin 25 g ai/ha): 0% | Effect (% visual injury) Obs (corn (ZEAMX); Metribuzin 25 g ai/ha): 0% | Effect (% visual injury) Obs (rice (ORYSA); ORYSA, Metribuzin 25 g ai/ha, postemergence, 20-22 d): 0% | Effect (% visual injury) Obs ([10]; Metribuzin 25 g ai/ha, 20-22 d): 0% | Effect (% visual injury) Obs ([2]; Metribuzin 25 g ai/ha, 20-22 d): 0% | Effect (% visual injury) Obs ([3]; Metribuzin 25 g ai/ha, 20-22 d): 0% | Effect (% visual injury) Obs ([11]; Metribuzin 25 g ai/ha, 20-22 d): 10% | Effect (% visual injury) Obs ([5]; Metribuzin 25 g ai/ha, 20-22 d): 10% | Effect (% visual injury) Obs ([6]; Metribuzin 25 g ai/ha, 20-22 d): 0%
